In patent publication US20220331408A1, “TREATMENT OF GLYCOGEN STORAGE DISEASE (GSD)” (GENETHON, priority 2019, published 2022):

How the values were obtained:
[1] = tested on: GAA; details: Pompe cells model expressing mutant forms of GAA, reference [9]; cited from earlier work
[2] = target: T1, human GAA (hGAA) (Homo sapiens, UniProt P10253); assay: Mature lysosomal 70 KDa hGAA in tissues (uptake) by Western blot, wild-type mice injected with AAV-GAA plus chaperones; assay type: in vivo; set-up: expressed in transfected cells; details: for GAA uptake in tissues: tissues overall (FIG. 3)
Description: Six-eight-week-old C57Bl/6 male mice were divided into 9 groups of five mice. 5×10^11 vg/kg of AAV8-sp7-Δ8-co1GAA vectors were administered at day 0 intravenously in awake, restrained animals via tail vein injection. Two months after the AAV treatment, 7 pharmacological chaperone molecules or combination of them were orally administered to the mice using a “3 on/4 off” regimen (three consecutive days of treatment followed by four consecutive days with drinking water only) for four weeks. At the end of this four-week period, all mice were sacrificed and different organs and muscles were collected (liver, heart, brain, spinal cord, diaphragm, quadriceps, and triceps). C57Bl/6 mice were injected either with PBS (CTRL) or with 5×10^11 vg/kg of the AAV8 vector expressing secretable therapeutic hGAA polypeptide (AAV-GAA).
Two months after vector injection, mice were treated for four weeks with 100 mg/kg/die of duvoglustat (DNJ, AX61Q1, Interchim, San Diego, Calif.), 100 mg/kg/die of duvoglustat combined with 25 mg/kg/die of ambroxol (DNJ-ABX), 25 mg/kg/die of ambroxol hydrochloride (ABX, A9797, Sigma, Saint Louis, Mo.), 2 mg/kg/die of voglibose (VOGLIBOSE, S4101, Selleckchem, Houston, Tex.), 20 mg/kg/die of acarbose (ACARBOSE, S1271, Selleckchem, Houston, Tex.), 2 mg/kg/die of miglitol (MIGLITOL, S2589, Selleckchem, Houston, Tex.) or 4200 mg/kg/die of N-acetyl-cysteine (NAC, A7250, Sigma, Saint Louis, Mo.) dissolved in drinking water (FIG. 1). One group received normal drinking water (WATER).
Three months after vector injection, mice were sacrificed and the levels of human GAA (hGAA) in blood and tissues were analyzed by Western blot.
At the end of the study (3 months post-injection), animals were sacrificed by CO2 inhalation. Liver, heart, brain, spinal cord, diaphragm, quadriceps, and triceps were collected and snap-frozen in liquid nitrogen for biochemical analysis. Frozen samples were stored at −80° C. until processing.
Mouse tissues were collected at sacrifice and homogenized in PBS. Protein concentration was determined using the BCA Protein Assay (Thermo Fisher Scientific, Waltham, Mass.). Plasma and tissues samples were diluted 1:20 in water (except for brain, where samples were diluted 1:200). SDS-page electrophoresis was performed in a 4-12% gradient polyacrylamide gel. After transfer, the membrane was blocked with Odyssey buffer (Li-Cor Biosciences, Lincoln, Nebr.), incubated with an anti-human GAA antibody (rabbit monoclonal antibody, Abcam, Cambridge, UK) and an anti-GAPDH antibody (rabbit polyclonal antibodies, PA1-988, Life Technologies, Carlsbad, Calif.). The membrane was washed and incubated with the appropriate secondary antibody (Li-Cor Biosciences, Lincoln, Nebr.), and visualized by Odyssey imaging system (925-32213, Li-Cor Biosciences, Lincoln, Nebr.). To measure the uptake of GAA in tissues, the 70 KDa band (mature form), visualized by the anti-GAA antibody was quantified and normalized to the levels of expression of GAPDH used as loading control.

[3] = target: GAA (Homo sapiens, UniProt P10253); assay: GAA activity in tissues (4-MU substrate cleavage) of GAA KO mice injected with AAV-hGAA plus chaperones; assay type: in vivo; details: for GAA activity (uptake) in tissues: tissues overall (FIG. 7)
Description: (§1) Three to four-month-old GAA deficient male mice were divided into six groups and one control group was composed by wild-type littermates. Each group was composed by eight mice in maximum two cages, to facilitate the administration of the drugs dissolved in drinking water. Starting from day 0, GAA deficient (KO) mice (mouse strain B6; 129-Gaa^tm1Rabn/J) were injected with AAV-hGAA at 1×10^11 vg/kg via tail vein injection in combination with the different pharmacological chaperones (PC) dissolved in the drinking water. In parallel, untreated GAA wild-type mice and two groups of GAA deficient mice injected with the AAV-hGAA vector or PBS were used as controls. PC molecules were orally administered to the mice, using a “3 days on/4 days off” regimen, consisting in three consecutive days of treatment followed by four consecutive days with drinking water only, as described in FIG. 4. Mice receive 100 mg/kg/die of duvoglustat (DNJ, AX61Q1, Interchim, San Diego, Calif.), 100 mg/kg/die of duvoglustat combined with 25 mg/kg/die of ambroxol hydrochloride (DNJ-ABX), 25 mg/kg/die of ambroxol hydrochloride (ABX, A9797, Sigma, Saint Louis, Mo.), 4200 mg/kg/die of N-acetyl-cysteine (NAC, A7250, Sigma, Saint Louis, Mo.) dissolved in drinking water (FIG. 4) or normal drinking water.
Circulating hGAA activity and levels were monitored over a period of two months. Mice were sacrificed and different organs and muscles were collected (heart, diaphragm, quadriceps, and triceps) to measure the uptake of GAA in tissues and the glycogen clearance.
At the end of the study (2 months post-injection), animals were sacrificed by CO2 inhalation. Heart, diaphragm, quadriceps, and triceps were collected and snap-frozen in liquid nitrogen for biochemical analysis. Frozen samples are stored at −80° C. until processing.
GAA activity was assessed in plasma and tissue by measurement of 4-methyl-umbelliferyl-α-d-glucoside (4-MU, Sigma, St Louis, Mo.) cleavage at pH 4.3. To this end, mouse tissues collected at sacrifice was homogenized in PBS. Insoluble proteins were removed by centrifugation. The protein content of the resultant lysates was quantified via the BCA Protein Assay (Thermo Fisher Scientific, Waltham, Mass.). Plasma and tissues samples were diluted in water and 10 μL of each sample were incubated with 20 μL of reconstituted substrate for 1 hr at 37° C. After stopping the reaction, the released fluorescence was measured with EN-SPIRE® fluorimeter (Perkin Elmer, Waltham, Mass.). GAA activity was normalized against total protein content or plasma volume.

[4] = target: T1, human GAA (hGAA); assay: Circulating hGAA levels by Western blot in GAA KO mice injected with AAV-hGAA plus chaperones; assay type: in vivo; details: AAV-hGAA 1×10^11 vg/kg, two months after vector injection (FIG. 5)
Description: as §1
Circulating hGAA activity and levels were monitored over a period of two months. […]

[5] = target: T1, human GAA (hGAA); assay: Circulating hGAA levels by Western blot in wild-type mice injected with AAV-GAA and given chaperones in drinking water; assay type: in vivo; details: wild-type C57Bl/6 mice, AAV-GAA 5×10^11 vg/kg, three months after vector injection, vs AAV-GAA mice on normal water (FIG. 2)
Description: Six-eight-week-old C57Bl/6 male mice were divided into 9 groups of five mice. 5×10^11 vg/kg of AAV8-sp7-Δ8-co1GAA vectors were administered at day 0 intravenously in awake, restrained animals via tail vein injection. Two months after the AAV treatment, 7 pharmacological chaperone molecules or combination of them were orally administered to the mice using a “3 on/4 off” regimen (three consecutive days of treatment followed by four consecutive days with drinking water only) for four weeks. At the end of this four-week period, all mice were sacrificed and different organs and muscles were collected (liver, heart, brain, spinal cord, diaphragm, quadriceps, and triceps). C57Bl/6 mice were injected either with PBS (CTRL) or with 5×10^11 vg/kg of the AAV8 vector expressing secretable therapeutic hGAA polypeptide (AAV-GAA). […]
Three months after vector injection, mice were sacrificed and the levels of human GAA (hGAA) in blood and tissues were analyzed by Western blot. […]
Mouse tissues were collected at sacrifice and homogenized in PBS. Protein concentration was determined using the BCA Protein Assay (Thermo Fisher Scientific, Waltham, Mass.). […] To measure the uptake of GAA in tissues, the 70 KDa band (mature form), visualized by the anti-GAA antibody was quantified and normalized to the levels of expression of GAPDH used as loading control.

[6] = general statement, no test described; cited from earlier work

In the case of Nc1c(Br)cc(Br)cc1CN[C@H]1CC[C@H](O)CC1 [ABX, ambroxol], the “tissue uptake of GAA, especially in a tissue of the nervous system” value [1] is given as “did not increase”, the “GAA uptake in tissues” value [2] is given as “increase” and the “GAA activity (uptake) in tissues” value [3] is given as “No significant differences”.
In the case of OC[C@H]1NC[C@H](O)[C@@H](O)[C@@H]1O [DNJ, 1-deoxynojirimycin], the “mature lysosomal form of hGAA in triceps” value ([2]; Western blot (FIG. 3B), significance reached in triceps only for DNJ group) was “increased levels”, the “mature lysosomal form of hGAA in spinal cord” value ([2]; Western blot (FIG. 3F)) was “increased levels” and the “mature lysosomal form of hGAA in diaphragm” value ([2]; Western blot band density normalized to GAPDH (FIG. 3C)) was “increased levels”. For the same compound, the “GAA uptake in tissues” value [2] was “increase”, the “GAA activity in heart” value ([3]; two months (FIG. 7A), significance only with both DNJ and ABX) was “increased enzyme activity” and the “GAA activity in diaphragm” value ([3]; two months (FIG. 7B), significance only with both DNJ and ABX) was “increased enzyme activity”. For the same compound, the “GAA activity in triceps” value ([3]; two months (FIG. 7C), significance only with both DNJ and ABX) was “increased enzyme activity”, the “GAA activity in quadriceps” value ([3]; two months (FIG. 7D), significance only with both DNJ and ABX) was “increased enzyme activity” and the “levels of circulating hGAA” value [4] was “significant increase”. For the same compound, the “levels of circulating hGAA” value [5] was “significant increase”.
In the case of CC(=O)N[C@@H](CS)C(=O)O [NAC, N-acetylcysteine], the “GAA uptake in tissues” value [2] was “increase”, the “GAA activity (uptake) in tissues” value [3] was “No significant differences” and the “levels of circulating hGAA” value [5] was “significant increase”.
In the case of “recombinant hGAA (ERT): recombinant GAA polypeptide alglucosidase alfa, marketed by Genzyme as Lumizyme or Myozyme”, the half-life [6] is given as “relatively short”.
